Reference: patent US8066979B1, “Attractants and repellents for the tropical root weevil Diaprepes Abbreviatus” (The United States of America as represented by the …, priority 2007, dated 2011)

What was measured:
[1] = system: D. abbreviatus male antenna; experiment: Gas chromatography-linked electroantennogram detection (GC-EAD); design: species or system Diaprepes abbreviatus; conditions: for antennal response (EAD) to constituents of citrus leaf headspace: SPME collection of citrus leaf volatiles, HP-5 column
Excerpt: Gas chromatography-linked electroantennogram detection (GC-EAD): The antenna of the insect was employed as a detector in tandem with a high resolution gas chromatography system (GC, Hewlett Packard, […]) as in Dickens (Dickens, J. C., Agr. Forest Entomol., 1: 47-54 (1999)) to locate biologically active constituents in volatile collections of plants and candidate chemicals. An adult weevil antenna was mounted between two glass capillaries. Silver wires were inserted into the ends of both glass capillaries. One glass capillary filled with 0.1 M NaCl served as recording electrode holding the tip of the flagellum. The other capillary filled with electrode gel (Spectra 360, Parker Laboratories, USA) served as ground electrode holding the proximal end of the pedicel. The antenna was bathed in a humidified air-stream (60% RH, 23±2° C.) delivered at 30 cm/s (Stimulus Controller CS-05, Syntech) via a stainless steel tube (5 mm internal diameter) whose outlet was approximately 0.5 cm from the preparation. The electrophysiological signal was amplified and conditioned prior to storage and analyses using a computer equipped with GC-EAD 2.3 software (Syntech). Samples were injected into the gas chromatograph with a septum-purged packed column injector and a flame ionization detector (FID) at 245° C. equipped with one of the following J&W Scientific capillary columns: stationary phase DB-[…], high polarity, film thickness 0.25 μm, length 30 m, i.d. 0.248 mm or HP-5, low polarity, film thickness 0.25 μm, length 30 m, i.d. 0.251 mm. After an initial temperature of 50° C., which was held for 2 min following injection, the temperature of the GC oven was increased at 15° C./min to 235° C., which was held for 8 min. The enantiomers of linalool present in the odor of citrus were separated for their identification using a β-cyclodextrin column (stationary phase HP-Chiral-20B, mid-polar polarity, film thickness 0.25 μm, length 30 m, i.d. 0.252 mm). Following the injection of the linalool enantiomers, the initial temperature of 50° C. was held for 2 min following injection and then increased at 3° C./min to 180° C. Carrier gas (He) flow was 50 cm/s. The effluent from the column was split using a Gerstel GraphPack-3D/2 splitter with a ratio of approximately 1 part to the FID and 4 parts to the electroantennogram detector (EAD). The latter was swept by the humidified air-stream to the electrophysiological preparation from a heated transfer line (Syntech) at 245° C. Volatiles that elicited responses on the antenna were identified by GC-MS (Dickens, J. C., et al., J. Exp. Biol., 4: 309-314 (2002)).

[2] = system: D. abbreviatus antennae; experiment: Electroantennography (EAG) recordings; design: species or system Diaprepes abbreviatus; conditions: for EAGs compared on the same antenna (enantiomer/racemate comparison): n=3, paired Wilcoxon test; for Mean EAG of the weevil antenna to the standard: diluted 1000-fold in hexane, mean±SE, n=30; for antenna sensory threshold: amount in stimulus cartridge; for EAG dose-response curve at the two higher stimulus loads: 10 μg and 100 μg
Description: Electroantennography (EAG) recordings: For EAGs, an adult weevil antenna was mounted between two electrodes as described above for GC-EAD recordings. EAGs were analyzed using EAG 2.3 software (Syntech).
The following chemicals were serially diluted (ca. 0.01-100 μg) in hexane and tested separately on the antenna: cis-3-hexen-1-ol, trans-2-hexen-1-ol, (±)-linalool, (R)-(−)-linalool, (R)-(+)-citronellal, (S)-(−)-citronellal, cis-geraniol (nerol), trans-geraniol, cis-citral (neral), trans-citral (geranial), and carvacrol. Citral isomers were tested together in a blend. In order to compare activity of (±)-linalool and (R)-(−)-linalool ([…] was not available) as well as (R)-(+)-citronellal and (S)-(−)-citronellal, the enantiomers were tested alternatively on the same antenna of female and male weevils. Solvents and synthetic chemicals used in this investigation were ≧97% pure and acquired from Aldrich, Fisher Scientific, Fluka, and Sigma. Nomenclature of chemicals in the text follows that employed by NIST (http://webbook.nist.gov/chemistry/). One microliter of each solution was deposited on a small filter paper strip (0.8×2 cm; Whatman) that was inserted into a Pasteur pipette (cartridge) after solvent evaporation. The tip of the pipette was introduced via a hole in the wall of the stainless steel tube at 3 cm from the preparation. An air current (0.5 s duration, 50 cm/s airspeed; Air Velocity Meter 441S, Kurtz Instruments, USA) swept the chemicals evaporating from the filter paper from the cartridge (Stimulus Controller CS-05, Syntech) to the air-stream in which the antenna was bathed. Interstimulus time intervals of 2-3 min allowed for recovery of the antennal receptors. To allow for changes in sensitivity of an antenna preparation over time, stimulation with a standard compound preceded and followed each stimulus tested. A puff of 1 μg of (R)-(−)-linalool served as standard for EAGs with cis-3-hexen-1-ol and trans-2-hexen-1-ol, and 1 μg of cis-3-hexen-1-ol for EAGs with other compounds. A solvent control consisted of 1 μl of hexane on filter paper. EAGs were standardized by calculating the percent response of the experimental odorant relative to the mean of two responses to the standard preceding and following its presentation.
(§1) Statistical analysis: EAGs between (±)-linalool and (R)-(−)-linalool as well as between (R)-(+)-citronellal and (S)-(−)-citronellal on the same antenna were compared using the paired Wilcoxon test (Sokal, R. R., and F. J. Rohlf, Biometry, 3rd ed. Freeman, New York (1995)). Relative and absolute proportions of volatiles released by undamaged and damaged citrus leaves were also compared using the paired Wilcoxon test. Insect choices between test and control T-track olfactometer extremes were assessed for significant differences by the hypothesis on binomial proportions based on the standard normal approximation (Brase, C. H., and C. P. Brase, Understanding statistics, 1983, DC Health and Co, Lexington, Mass.). Other behaviors were analyzed using the paired Wilcoxon test and Chi-square test. Statistical analysis was performed using R (version 2.4.0, Vienna, Austria; Ihaka, R., and R. […], J. Comput. Graph. Stat., 5: 299-314 (1996)).

[3] = system: D. abbreviatus adults; experiment: Open T-track dual choice olfactometer behavioral experiments; format: in vivo, Diaprepes abbreviatus; design: unit not given here; conditions: stereotyped behavior in T-track olfactometer
Excerpt: Behavioral experiments: An open T-track dual choice olfactometer described by Dickens (1999) was modified as follows. A container (diameter 11 cm, height 8 cm) with petrolatum on its border, to prevent the escape of insects that were placed in its interior, was placed at the bottom of the vertical “T”. As D. abbreviatus is reluctant to move for long periods (some times hours) after being manipulated, 20-30 insects of the same sex were placed in the container in order to increase chances of observing insects walking. When more than one insect started to climb the “T” tube, the experiment was discarded. Stereotyped behaviors performed by the weevil were recorded using a video camera (Digital Handycam DCR-TVR30).
The following compounds diluted in 25 μl of mineral oil placed on a 4.25 cm filter paper (No. 2, Whatman, England) in a odour-delivery bottle were tested separately in the olfactometer (doses indicated in parenthesis): (±)-linalool (25 μg), (R)-(+)-citronellal (25 μg), carvacrol (25 μg) and cis-3-hexen-1-ol (25 μg). The following blends were also tested: (±)-linalool (25 μg)+carvacrol (2.5 μg) and (±)-linalool (25 μg)+carvacrol (2.5 μg)+cis-3-hexen-1-ol (25 μg). An equal amount of the mineral oil solvent on filter paper was placed in the other side of the olfactometer. In order to observe the behaviour of insects to solvent alone, mineral oil was placed in both odour-delivery bottles. Responses of forty insects (20 females and 20 males) were recorded for each stimulus.
as §1

[4] = at the injected amounts 1 ng and 10 ng

C=CC(C)(O)CCC=C(C)C (racemic) [(±)-linalool]
antennal response (EAD) to injected synthetic compound ([1]; 10 ng injected): persisted
EAGs compared on the same antenna (enantiomer/racemate comparison) ([2]; females): did not differ significantly
EAGs compared on the same antenna (enantiomer/racemate comparison) ([2]; males): did not differ significantly
hesitation ([3]; females): 80
reaching ([3]; females): 30
rectifying ([3]; females): 22.5
hesitation ([3]; males): 82.5
reaching ([3]; males): 52.5
rectifying ([3]; males): 25

CC(C)=CCCC(C)CC=O (racemic) [(±)citronellal]
antennal response (EAD) to injected synthetic compound ([1]; 1 ng injected, the lowest dose): disappeared
antennal response (EAD) to injected synthetic compound ([1]; 10 ng injected): persisted

CC(C)=CCC[C@@H](C)CC=O [(R)-(+)-citronellal]
EAGs compared on the same antenna (enantiomer/racemate comparison) ([2]; females): larger than for (S)-(−)-citronellal
EAGs compared on the same antenna (enantiomer/racemate comparison) ([2]; males): larger than for (S)-(−)-citronellal
hesitation ([3]; females): 95
reaching ([3]; females): 62.5
rectifying ([3]; females): 15
hesitation ([3]; males): 85
reaching ([3]; males): 52.5
rectifying ([3]; males): 5

C=C[C@](C)(O)CCC=C(C)C [(R)-(−)-linalool]
Mean EAG of the weevil antenna to the standard [2]: 1.750±0.311 mV
EAGs compared on the same antenna (enantiomer/racemate comparison) ([2]; females): did not differ significantly
antenna sensory threshold ([2]; females): around 0.1 μg
EAGs compared on the same antenna (enantiomer/racemate comparison) ([2]; males): did not differ significantly
antenna sensory threshold ([2]; males): around 0.1 μg

CC(C)=CCC[C@H](C)CC=O [(S)-(−)-citronellal]
antenna sensory threshold ([2]; males): around 0.1 μg

Cc1ccc(C(C)C)cc1O [carvacrol]
antennal response (EAD) to injected synthetic compound [1, 4]: EAGs were recorded only for the two former chemicals
increase in EAG response from 1 to 10 μg in the stimulus cartridge [2]: did not share such a pattern
EAG dose-response curve at the two higher stimulus loads ([2]; females): reached saturation
increase in EAGs in response to serial dilutions ([2]; females, from 0.01 μg to 1 μg): more pronounced than for males
antenna sensory threshold ([2]; females): around 0.1 μg
EAG dose-response curve at the two higher stimulus loads ([2]; males): continued to increase
hesitation ([3]; females): 90
reaching ([3]; females): 45
rectifying ([3]; females): 32.5
hesitation ([3]; males): 95
reaching ([3]; males): 45
rectifying ([3]; males): 47.5

CC/C=C\CCO [cis-3-hexen-1-ol]
antennal response (EAD) to injected synthetic compound [1, 4]: EAGs were recorded
Mean EAG of the weevil antenna to the standard [2]: 1.605±0.200 mV
antenna sensory threshold ([2]; females): around 0.1 μg
antenna sensory threshold ([2]; males): around 0.1 μg
hesitation ([3]; females): 75
reaching ([3]; females): 12.5
rectifying ([3]; females): 10
hesitation ([3]; males): 85
reaching ([3]; males): 30
rectifying ([3]; males): 12.5

CC(C)=CCC/C(C)=C\C=O [cis-citral, cis-citral (neral)]
antennal response (EAD) to injected synthetic compound [1, 4]: no responses

CC(C)=CCCC(C)=CC=O [citral (cis and trans), citral]
antenna sensory threshold ([2]; females): around 0.1 μg
antenna sensory threshold ([2]; males): around 0.1 μg

CC(C)=CCCC(C)CC=O (centres unmarked) [citronellal]
antennal response (EAD) to constituents of citrus leaf headspace [1]: EAGs were recorded

C=CC(C)(O)CCC=C(C)C (centres unmarked) [linalool]
antennal response (EAD) to constituents of citrus leaf headspace [1]: EAGs were recorded

CC(C)=CCC/C(C)=C\CO [nerol, cis-geraniol (nerol)]
antennal response (EAD) to constituents of citrus leaf headspace [1]: EAGs were recorded
antennal response (EAD) to injected synthetic compound [1, 4]: no responses
increase in EAG response from 1 to 10 μg in the stimulus cartridge [2]: did not share such a pattern

CCC/C=C/CO [trans-2-hexen-1-ol]
antennal response (EAD) to injected synthetic compound [1, 4]: EAGs were recorded
antenna sensory threshold ([2]; females): around 0.1 μg
antenna sensory threshold ([2]; males): around 0.1 μg

CC(C)=CCC/C(C)=C/C=O [trans-citral, trans-citral (geranial)]
antennal response (EAD) to constituents of citrus leaf headspace [1]: EAGs were recorded
antennal response (EAD) to injected synthetic compound [1, 4]: no responses

CC(C)=CCC/C(C)=C/CO [trans-geraniol]
antennal response (EAD) to injected synthetic compound [1, 4]: no responses
increase in EAG response from 1 to 10 μg in the stimulus cartridge [2]: did not share such a pattern
increase in magnitude of EAGs with increments in amount dosed in the stimulus cartridge ([2]; females): EAG increase was not pronounced
antenna sensory threshold ([2]; females): around 0.1 μg
increase in magnitude of EAGs with increments in amount dosed in the stimulus cartridge ([2]; males): no significant increases
